Experimental data from the supplement of paper PMC10307832.

Key:
Assay in all cases: relative viability (nuclei count vs DMSO), 5 days (fraction); higher = more cells survive
Selisistat + Pictilisib = compound: C1CC(C2=C(C1)C3=C(N2)C=CC(=C3)Cl)C(=O)N [Selisistat] + CS(=O)(=O)N1CCN(Cc2cc3nc(-c4cccc5[nH]ncc45)nc(N4CCOCC4)c3s2)CC1 [Pictilisib] (partner 1 µM)
Procedure, shortened: (§1)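 A single step with final 0.05% Triton X-100, 1% formaldehyde and 1 ug/ml Hoechst fixed the cells and stained nuclei 5 days after treatment. Lung cancer cell lines in 1536-well plates had been treated by pin tool the day after seeding with one drug alone or a fixed anchor-drug dose plus five library-drug doses (not always all listed) in √10 steps, and nuclei were counted on 4× images. Relative viability is the ratio of nuclei in treated wells to nuclei in vehicle wells, taken as the median of duplicate plates.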

Serdemetan + Phenformin = compound: c1ccc2c(CCNc3ccc(Nc4ccncc4)cc3)c[nH]c2c1 [Serdemetan] + N=C(N)NC(=N)NCCc1ccccc1 [Phenformin] (partner 250 µM)
Procedure, shortened: as §1

Selisistat + AZD7762 = compound: C1CC(C2=C(C1)C3=C(N2)C=CC(=C3)Cl)C(=O)N [Selisistat] + NC(=O)Nc1cc(-c2cccc(F)c2)sc1C(=O)N[C@H]1CCCNC1 [AZD7762] (partner 0.2 µM)
Procedure, shortened: as §1

Selisistat + Trametinib = compound: C1CC(C2=C(C1)C3=C(N2)C=CC(=C3)Cl)C(=O)N [Selisistat] + CC(=O)Nc1cccc(-n2c(=O)n(C3CC3)c(=O)c3c(Nc4ccc(I)cc4F)n(C)c(=O)c(C)c32)c1 [Trametinib] (partner 0.02 µM)
Procedure, shortened: as §1

Row | Cell Line | relative viability (Selisistat + Pictilisib; first compound 0.4 µM) | relative viability (Selisistat + Pictilisib; first compound 1.265 µM) | relative viability (Selisistat + Pictilisib; first compound 4 µM) | relative viability (Selisistat + Pictilisib; first compound 12.65 µM) | relative viability (Selisistat + Pictilisib; first compound 40 µM) | relative viability (Serdemetan + Phenformin; first compound 0.04 µM) | relative viability (Serdemetan + Phenformin; first compound 0.1265 µM) | relative viability (Serdemetan + Phenformin; first compound 0.4 µM) | relative viability (Serdemetan + Phenformin; first compound 1.265 µM) | relative viability (Serdemetan + Phenformin; first compound 4 µM) | relative viability (Selisistat + AZD7762; first compound 0.4 µM) | relative viability (Selisistat + AZD7762; first compound 1.265 µM) | relative viability (Selisistat + AZD7762; first compound 4 µM) | relative viability (Selisistat + AZD7762; first compound 12.65 µM) | relative viability (Selisistat + AZD7762; first compound 40 µM) | relative viability (Selisistat + Trametinib; first compound 0.4 µM) | relative viability (Selisistat + Trametinib; first compound 1.265 µM) | relative viability (Selisistat + Trametinib; first compound 4 µM) | relative viability (Selisistat + Trametinib; first compound 12.65 µM) | relative viability (Selisistat + Trametinib; first compound 40 µM)
1 | LC-2-ad | 0.538 | 0.424 | 0.333 | 0.426 | 0.565 | 0.559 | 0.589 | 0.556 | 0.496 | 0.579 | 0.827 | 0.814 | 0.68 | 0.775 | 0.9 | 0.973 | 0.96 | 0.898 | 0.662 | 0.95
2 | NCI-H1915 | 0.913 | 0.965 | 0.533 | 0.892 | 0.95 | 0.38 | 0.358 | 0.359 | 0.318 | 0.334 | 0.668 | 0.687 | 0.775 | 0.674 | 0.757 | 0.348 | 0.307 | 0.318 | 0.297 | 0.342
3 | NCI-H1793 | 0.311 | 0.275 |  | 0.287 | 0.516 | 0.378 | 0.293 | 0.247 | 0.236 | 0.26 | 0.477 | 0.461 |  | 0.53 | 0.73 | 0.38 | 0.431 |  | 0.438 | 0.381
4 | RERF-LC-KJ | 0.6 | 0.436 | 0.432 | 0.471 | 0.48 | 0.349 | 0.507 | 0.389 | 0.404 | 0.399 | 0.932 | 0.765 | 0.823 | 0.898 | 0.877 | 0.812 | 0.792 | 0.816 | 0.771 | 0.736
5 | LXF-289 | 0.845 | 0.812 | 0.633 | 0.747 | 0.85 | 0.483 | 0.522 | 0.5 | 0.457 | 0.517 | 1.12 | 1.14 | 0.936 | 1.03 | 1.1 | 0.72 | 0.727 | 0.646 | 0.69 | 0.731
6 | PC-14 | 0.699 | 0.66 | 0.729 | 0.664 | 0.824 | 0.59 | 0.537 |  | 0.531 | 0.549 | 0.381 | 0.344 | 0.226 | 0.278 | 0.36 | 0.723 | 0.655 | 0.823 | 0.825 | 0.671
7 | NCI-H650 | 0.746 |  | 1.11 | 0.594 | 0.807 | 0.417 | 0.44 | 0.506 | 0.403 | 0.481 | 1.15 | 0.988 | 1 | 0.867 | 1.13 | 0.978 | 1.01 | 0.967 | 0.909 | 1.01
8 | NCI-H1666 | 0.421 | 0.401 | 0.312 | 0.423 | 0.318 | 0.55 | 0.557 | 0.535 | 0.529 | 0.412 | 0.841 | 0.83 | 0.806 | 0.895 | 0.96 | 0.839 | 0.833 | 0.987 | 0.839 | 0.83
